Results: patent US6130227A, “7-Substituted camptothecin derivatives and methods for inhibiting the growth of tumor cells therewith” (priority 1996, dated 2000)

Columns and labels:
[1] = test system: NCI-H460 human lung tumor xenograft growing i.p.; test: Survival of nude mice bearing i.p. NCI-H460 tumor xenograft; assay type: in vivo
Excerpt: A preclinical efficacy study was designed to evaluate the antitumor activity of the compounds of the present invention in comparison with topotecan (a first generation camptothecin already in clinical trials) as reference drug. The human tumor line NCI-H460, a non small cell lung carcinoma, was chosen because of the high expression of topoisomerase I, the known target of camptothecin drugs. This tumor model is relatively resistant to in vivo treatment with conventional cytotoxic agents (e.g., doxorubicin, cisplatin). Tumor cells were injected i.p. into nude mice (2.5×10^6 cell/mouse) of about 10 weeks and 3 days later the drugs were injected in the peritoneal cavity (10 ml/kg b.w.) to allow a direct contact of the drugs with tumor cells. Both topotecan and the compound of formula (I) described in Example 1 below, were delivered q4dx4 times. This schedule has been reported as optimal for camptothecin drugs in other preclinical studies. Mice were observed daily for death. The antitumor activity of the drugs was expressed as T/C %, i.e. the ratio between the median survival time of the drug-treated mice (T) and survival of the control untreated mice (C)×100. Treated mice, dead before the first control mouse or shortly after treatment with reduced body weight, were considered dead for drug toxicity. Mice still alive over 100 days after tumor cell inoculum were considered as long-term survivors (LTS). […]

[2] = Antitumor activity by the oral route; assay type: in vivo
[3] = Experiment 1, 6.6 mg/kg i.p. q4d x 4
[4] = Experiment 1, 10 mg/kg i.p. q4d x 4
[5] = Experiment 1, 10 mg/kg i.p. q4d x 4, from day 3
[6] = Experiment 2, 10 mg/kg i.p. q4d x 4
[7] = Experiment 2, 10 mg/kg i.p. q4d x 4, from day 3
[8] = Experiment 2, 12 mg/kg i.p. q4d x 4
[9] = Experiment 2, 12 mg/kg i.p. q4d x 4, from day 3
[10] = Experiment 2, 14.4 mg/kg i.p. q4d x 4
[11] = Experiment 2, 14.4 mg/kg i.p. q4d x 4, from day 3

Structure (SMILES) | LTS (100 days) [1, 4] | No. of toxic/total no. mice [1, 4] | % T/C [1, 5] | LTS (100 days) [1, 6] | % T/C [1, 7] | LTS (100 days) [1, 8] | No. of toxic/total no. mice [1, 8] | % T/C [1, 9] | LTS (100 days) [1, 10] | % T/C [1, 11] | other results
CC[C@@]1(O)C(=O)OCc2c1cc1n(c2=O)Cc2c-1nc1ccccc1c2C#N [Example 1, 20S-camptothecin-7-carbonitrile] | 3/8 | 0/8 | 258% | 1/7 | 233% | 1/7 | 0/7 | 200% | 2/7 | 277% | LTS (100 days) [1, 3]: 2/8; No. of toxic/total no. mice [1, 3]: 0/8; % T/C ([1]; Experiment 1, 6.6 mg/kg i.p. q4d x 4, from day 3): 157%; No. of toxic/total no. mice [1, 6]: 0/7; No. of toxic/total no. mice ([1]; Experiment 2, 14.4 mg/kg i.p. q4d x 4, 14.4 mg/kg): 1/7; No. of toxic/total no. mice ([1]; Experiment 2, 14.4 mg/kg i.p. q4d x 4, listed as CPT83, 14.4 mg/kg): 1; Tolerability compared with topotecan ([1]; NCI-H460 tumor xenograft): better tolerability than topotecan; T/C % values ([1]; at all doses tested): higher than 200%; Drug efficacy compared with topotecan ([1]; experiment 1, slowly-growing tumor): superior to that of topotecan; Efficacy in terms of T/C % compared with topotecan ([1]; experiment 2, rapidly growing tumor): comparable to that of topotecan; Activity by the oral route ([2]; oral): active; Activity compared with topotecan ([2]; oral CPT83 vs topotecan i.v. with optimal treatment schedule): more active than topotecan
CC[C@@]1(O)C(=O)OCc2c1cc1n(c2=O)Cc2cc3c(CN(C)C)c(O)ccc3nc2-1 [Topotecan, reference compound] | 2/8 | 0/8 | 215% | 1/7 | 261% | 0/7 | 4/7 | 77% | 0/7 | 77% | No. of toxic/total no. mice [1, 10]: 5/7
